Data reported in PubChem BioAssay AID686930 (Broad Institute, 2013).
Several values for one entry are separate records, joined by “and”; a condition that tells them apart may be missing. Equal entries are not always repeated. Activity calls are given as the source filed them. How the calls were made is not given here.

Test system: not listed separately
Test: Confirmatory dose response, V. cholerae WN1103 δluxq inducers of light production, absence of autoinducers (AID 686930)
Settings: V. cholerae WN1103 ΔluxQ, lux luminescence, 6 h; at 35 µM (top of the series)

| SMILES | light induction (activation) |
| --- | --- |
| O=C(CC1CCCCC1)Nc1nnc(-c2ccc3c(c2)CCCC3)o1 | 0.068% (inactive) |

Same assay, conditions: V. cholerae WN1103 ΔluxQ, lux luminescence, 6 h; at 80 µM (top of the series)

| SMILES | light induction (activation) |
| --- | --- |
| COC(=O)c1ccccc1Nc1cccc(Cl)c1 | 0.819% (inactive) |
| O=C1C(=O)N(Cc2ccccc2Cl)c2ccccc21 | 0.599% (inactive) |
| O=c1ncn(-c2ccc(Cl)cc2)c2ccccc12 | 0.086% (inactive) |
| O=C(O)c1ccccc1Nc1cccc(Cl)c1 | 0.041% (inactive) |
| O=c1ncn(-c2ccc(Cl)c(Cl)c2)c2ccccc12 | 0.121% (inactive) |
| O=C(Nc1nnc(-c2ccc(Cl)cc2)o1)C1CCCCC1 | 0.835% (inactive) |
| CCc1nc(=O)c2ccccc2n1-c1cccc(Cl)c1 | 0.68% (inactive) |
| COc1ccc(-n2cnc(=O)c3ccccc32)cc1Cl | 1.24% (inactive) |
| Cc1ccc(-n2cnc(=O)c3ccccc32)cc1Cl | 0.708% (inactive) |
| O=C(CSc1nc2ccccc2c(=O)[nH]1)NC1CCCCC1 | 0.011% (inactive) |
| O=C(CSc1nc2c(c(=O)[nH]1)CCCC2)NC1CCCCC1 | 1.52% (inactive) |
| O=c1ncn(-c2cccc(Cl)c2)c2cccc(Cl)c12 | 0.081% (inactive) |
| O=C(Nc1nnc(-c2ccc3c(c2)OCCO3)o1)C1CCCC1 | 0.121% (inactive) |
| CCOC(=O)c1ccccc1Nc1cccc(Cl)c1 | 0.033% (inactive) |
| O=c1nc(Cc2ccccc2)n(-c2cccc(Cl)c2)c2ccccc12 | 17.7% (inactive) |
| O=c1ncn(-c2ccccc2Cl)c2ccccc12 | 5% (inactive) |

| SMILES | light induction (activation) |
| --- | --- |
| O=C(CC1CCCCC1)Nc1nnc(-c2cccnc2)o1 | -0.002% (inactive) |
| CCC(C)(C)C(=O)Nc1nnc(-c2ccc3c(c2)OCCO3)o1 | -0.001% (inactive) |
| Cn1cnc(=O)c2ccccc21 | 0.063% (inactive) |
| COc1ccc2c(=O)ncn(-c3cccc(Cl)c3)c2c1 | 0.054% (inactive) |
| O=C(Nc1nnc(-c2cccc(Cl)c2)o1)C1CCCCC1 | 0.053% (inactive) |
| NC(=O)c1ccccc1Nc1ccccc1 | 1.21% (inactive) |
| O=c1ncn(Cc2ccc(Cl)cc2)c2ccccc12 | 3.21% (inactive) |
| O=C(Nc1nnc(-c2ccc3c(c2)CCCC3)o1)C1CCC1 | 0.009% (inactive) |
| Cc1ccc2cc3c(NC(=O)c4ccoc4)nn(C)c3nc2c1 | 6.06% (inactive) |
| NC(=O)c1ccccc1Nc1cccc(Cl)c1 | 0.32% (inactive) |
| O=C1C(=O)N(Cc2cccc(Cl)c2)c2ccccc21 | 0.237% (inactive) |
| O=c1ncn(-c2cccc(Cl)c2)c2cc(Cl)ccc12 | 0.848% (inactive) |
| COc1cccc(-n2cnc(=O)c3ccccc32)c1 | 12% (inactive) |
| O=c1[nH]cnc2ccccc12 | 0.044% (inactive) |
| Cc1ccc2c(=O)ncn(-c3cccc(Cl)c3)c2c1 | 0.092% (inactive) |
| O=c1nc(-c2ccccc2)n(-c2cccc(Cl)c2)c2ccccc12 | -0.003% (inactive) |

Same assay, conditions: V. cholerae WN1103 ΔluxQ, lux luminescence, 6 h; at 100 µM (top of the series)

| SMILES | light induction (activation) |
| --- | --- |
| O=C(Nc1nnc(-c2ccc3c(c2)OCCO3)o1)C1CCC1 | 0.014% (inactive) |
| Cn1nc(NC(=O)c2ccco2)c2ccccc21 | 3.2% (inactive) |
| Cn1ccc(NC(=O)c2ccco2)n1 | 0.057% (inactive) |
| COc1ccc(-c2nnc(NC(C)=O)o2)cc1 | 0.052% (inactive) |
| O=S(=O)(Nc1nnc(-c2ccc3c(c2)OCCO3)o1)c1ccc(Cl)cc1 | -0.019% (inactive) |
| O=C(Nc1nnc(-c2ccccc2Cl)o1)C1CCCCC1 | 0.001% (inactive) |
| COc1cccc(-c2nnc(NC(=O)C3CCCCC3)o2)c1 | 0.041% (inactive) |
| O=C(Nc1nnc(-c2cccnc2)o1)C1CCC1 | -0.007% (inactive) |
| c1ccc(CNc2nnc(-c3ccc4c(c3)OCCO4)o2)cc1 | 0.006% (inactive) |
| C(=N\c1nnc(-c2ccc3c(c2)OCCO3)o1)/c1ccccc1 | 0.005% (inactive) |
| CN(C)/C=N/c1nnc(-c2ccc3c(c2)OCCO3)o1 | 0.028% (inactive) |
| COc1ccc(S(=O)(=O)Nc2nnc(-c3ccc4c(c3)OCCO4)o2)cc1 | -0.015% (inactive) |
| CC(C)c1ccc2cc3c(NC(=O)c4ccco4)nn(C)c3nc2c1 | 0.362% (inactive) |
| Cn1nc(NC(=O)c2ccco2)c2cc3ccc(C(C)(C)C)cc3nc21 | -0.007% (inactive) |
| O=C(Nc1nnc(-c2cccnc2)o1)C1CCCCC1 | 7.84% (inactive) |
| Cc1ccc2cc3c(NC(=O)c4ccc(C)o4)nn(C)c3nc2c1 | 8.61% (inactive) |
| CN1CCC(C(=O)Nc2nnc(-c3ccc4c(c3)OCCO4)o2)CC1 | 0.046% (inactive) |
| O=C(Cc1ccc(-c2ccccc2)cc1)NC1COC1 | 32.6% (inactive) |
| O=C(Nc1nnc(C2CCCC2)o1)C1CCCCC1 | 0.003% (inactive) |
| CCn1nnnc1N | 0.029% (inactive) |
| Cc1ccc2cc3c(NC(=O)c4cc5ccccc5o4)nn(C)c3nc2c1 | -0.001% (inactive) |
| O=C(Nc1nnc(-c2ccc3c(c2)OCCO3)o1)C1CC1 | 0.003% (inactive) |
| O=C(Cc1ccc(-c2ccccc2)cc1)NC1CNC1 | 0.006% (inactive) |
| CC(C)(C)OC(=O)N1CCC(C(=O)Nc2nnc(-c3ccc4c(c3)OCCO4)o2)CC1 | 0.028% (inactive) |
| CCn1nnnc1/N=C/c1ccc(N2CCCCC2)cc1 | 1.21% (inactive) |
| Cc1ccc2cc3c(NC(=O)c4ccccn4)nn(C)c3nc2c1 | -0.007% (inactive) |
| O=C(Nc1nnc(-c2ccncc2)o1)C1CCC1 | 0.061% (inactive) |
| O=C(Nc1nnc(-c2ccc3c(c2)OCCO3)o1)C(F)(F)c1ccccc1 | -0.027% (inactive) |
| Cc1ccc2cc3c(NC(=O)Cc4ccco4)nn(C)c3nc2c1 | 0.668% (inactive) |

Test system: V. cholerae WN1103 ΔluxQ, lux luminescence, 6 h
Test: as above
Settings: not given

| SMILES | AC40 |
| --- | --- |
| O=C(Nc1nnc(-c2ccc3c(c2)OCCO3)o1)C1CCCCC1 | 5.8 µM and 1.96 µM |
| CCn1nnnc1NC(C)c1ccc(N2CCCC2)cc1 (configuration not stated) | 34.7 µM |
| Cc1ccc2cc3c(NC(=O)C4CCCC4)nn(C)c3nc2c1 | 59.3 µM |
| Cc1cc2nc3c(cc2cc1F)c(NC(=O)c1ccco1)nn3C | 57.3 µM |
| CCCCCCCCCC(=O)[C@H](O)CC (racemic) | 1.92 µM |
| Cc1cc2cc3c(NC(=O)c4ccco4)nn(C)c3nc2cc1C | 71.7 µM |
| Cc1cc(F)cc2nc3c(cc12)c(NC(=O)c1ccco1)nn3C | 27.1 µM |
| Cc1cc(F)c2cc3c(NC(=O)c4ccco4)nn(C)c3nc2c1 | 47 µM |
| O=C(Cc1ccc(-c2ccccc2)cc1)NC1CCC1 | 5.06 µM |
| COc1ccccc1-c1nnc(NC(=O)C2CCCCC2)o1 | > 100 µM (inactive) |
| O=c1ncn(-c2cccc(Cl)c2)c2ccccc12 | 0.0667 µM and 0.362 µM |
| CCn1nnnc1NCc1ccc(C(C)C)cc1 | 0.255 µM |
| O=c1ncn(-c2ccccc2)c2ccccc12 | 0.361 µM |
| Cn1nc(NC(=O)c2ccco2)c2cc3ccccc3nc21 | 4.12 µM |
| O=c1ncn(-c2ccc(F)c(Cl)c2)c2ccccc12 | 5.38 µM |
| CCc1ccc2cc3c(NC(=O)c4ccco4)nn(C)c3nc2c1 | 42.1 µM |
| Cc1nc(=O)c2ccccc2n1-c1cccc(Cl)c1 | 18.1 µM |
| COc1ccc2cc3c(NC(=O)c4ccco4)nn(C)c3nc2c1 | 0.901 µM |
| O=c1ncn(-c2cc(Cl)cc(Cl)c2)c2ccccc12 | 1.09 µM |
| O=c1ncn(-c2cccc(F)c2)c2ccccc12 | 0.302 µM |
| O=C(Nc1nnc(-c2ccc3c(c2)OCCO3)o1)C1CCCCCC1 | 9.05 µM |
| COc1ccc(-c2nnc(NC(=O)C3CCCCC3)o2)cc1 | > 100 µM (inactive) |
| Cc1ccc2cc3c(NC(=O)c4cccs4)nn(C)c3nc2c1 | > 80 µM (inactive) |
| Cc1ccc2c(c1)c(=O)ncn2-c1cccc(Cl)c1 | 1.45 µM |
| O=C(Cc1ccc(-c2ccccc2)cc1)N[C@@H]1CCOC1 (racemic) | 31.2 µM |
| O=c1ncn(-c2cccc(Cl)c2)c2ccc(Cl)cc12 | 1.33 µM |
| Cn1nc(NC(=O)c2ccco2)c2cccnc21 | 44.1 µM |
| CC(C)(C)COC(=O)CSc1n[nH]c(=O)[nH]c1=O | 18.9 µM |
| Cc1cccc(-n2cnc(=O)c3ccccc32)c1 | 0.199 µM |
| CCCCCCCCCC(=O)C(O)CC (configuration not stated) | 0.848 µM |
